Reference: patent US9169509B2, “Topoisomerase 2b as a predictor of susceptibility to anthracycline-induced cardiotoxicity” (Board of Regents, The University of Texas System, priority 2013, dated 2015)

What was measured:
[1] = test system: heart sections; assay: Detection of reactive oxygen species (DHE staining) in heart sections; format: in vivo, mouse
Source text: The hearts were isolated on ice, embedded in OCT, snap frozen in liquid nitrogen, sectioned into 5 μm-thick slices, and ROS generation was detected immediately by using dihydroethidium (DHE). Doxorubicin treatment generated ROS in the hearts of Top2b^+/+ mice, but this was reduced by 70% in Top2b^Δ/Δ mice (FIGS. 5b,c).
The hearts were perfused with ice-cold PBS and quickly removed. The hearts were embedded in OCT and snap-frozen in liquid nitrogen. Series of 5 μm-thick slices were sectioned from the heart immediately. Tissue sections were then stained with Dihydroethidium (DHE, Invitrogen) for 15 m, followed by staining with DAPI (1 μg/ml, Sigma). Tissue slides were sealed and examined with an Olympus epifluorescence microscope (Model BX51). The numbers of DHE-positive nuclei and the total nuclei were counted in 5 microscopic fields (400×) per section. Five heart sections from each mouse were counted to determine the percentage of the DHE-positive nuclei.

[2] = test system: cardiomyocytes; assay: Western blot of Ndufa3, Atp5a and Sdha in mitochondria isolated from cardiomyocytes; format: in vivo, mouse; details: cardiomyocytes of doxorubicin-treated Top2b+/+ mice, 72 h
Experimental: Expression of Top2b was examined in the hearts of mice. After sacrifice, the heart was quickly removed and homogenized immediately in lysis buffer. After homogenization, the lysate was sonicated at 4° C. and an aliquot was removed for protein concentration measurement. The lysate was stored at −80° C. for western blot analysis. 20 μg of lysate proteins were electrophoresed and transferred to PVDF membranes. Blots were blocked with 5% non-fat dry milk, and incubated overnight at 4° C. with anti-Top2b antibody (Abcam). To detect mitochondrial proteins, the mitochondria were isolated from cardiomyocytes. The cardiomyocytes were isolated with a Langendorff perfusion system according to a published protocol3. Briefly, heart was removed and rinsed with ice-cold PBS twice before connecting to a Langendorff apparatus through the aorta. The heart was perfused first with perfusion buffer for 3 m at 37° C. (3 ml/min), then digestion buffer (enzyme-containing) buffer at 37° C. for 8-10 m. The heart was disintegrated manually and the tissue/cells were separated by using forceps. […] After incubation with HRP-conjugated secondary antibodies for 40 m at room temperature, the blots were detected with a luminol-based detection kit (ECL, GE Health Care).

[3] = test system: HL-1 cells; assay: PGC-1 expression in HL-1 cells by RT-qPCR; format: cell-based; details: doxorubicin 1 μm for 2 or 4 hours
Experimental: FIGS. 7a-e: a, b. PGC-1 expression in HL-1 cells. […] Expression was measured with RT-qPCR. c, d. CHiP analysis in HL-1 cells. HL-1 cardiomyocytes were treated with (right bars) or without (left bars) DOX ([…]) for 2 hrs and isolated for ChIP using the Top2β antibody. The eluted DNA and Input were PCR amplified to detect specific promoter regions represented in the schematic above the respective ChIP data. […] CHiP study in cardiomyocytes. Cardiomyocytes were isolated from control (n=4) and Dox-treated (n=4) mice and subject to ChIP with the Top2b antibody. The data represent real-time PCR ratios for the fold-enrichment of Top2b at the respective promoters.

[4] = test system: mouse heart; assay: Cardiac MRI for measuring cardiac function after chronic doxorubicin; details: mice, doxorubicin 5 mg/kg ip once a week for 5 weeks; decreased from 57% (Example 4, FIG. 13)
Experimental: Before Cre induction, cardiac MRI scan was performed on each mouse to examine the baseline ejection fraction. Cardiomyocyte-specific Cre induction was carried out by treating mice with tamoxifen. […] Doxorubicin treatment (5 mg/kg, i.p., once a week for 5 weeks) was started 7 days after the second MRI scan. Two weeks after the last dose of doxorubicin, a third MRI scan was performed (FIG. 6a).
Every mouse in the EF experiments received 3 MRI scans, i.e., a baseline scan, a second scan 2 weeks after the end of tamoxifen treatment, and a third scan 2 weeks after the last dose of doxorubicin. […] Mice were anesthetized with isoflurane (2.5% in 97.5% O2), and scanned on a 7.0 T Biospec small animal scanner (Bruker Biospin Inc., Billerica, Mass.). Imaging gradients with 60 mm inner diameter (ID) were used with a 35 mm ID linear birdcage-style volume resonator. T1-weighted anatomic reference images were acquired using a three dimension (3D) fast low-angle shot (FLASH) gradient echo sequence. A retrospectively gated FLASH pulse sequence was used to acquire cardiac cine images with excellent contrast between bright blood and adjacent myocardium. To measure volumetric left ventricular ejection fraction (LVEF), at least 6 short axis images were scanned at 1 mm interval from the apex to the base of the heart. End-diastolic (ED) and end-systolic (ES) left ventricular volumes were obtained by the biplane area length method, and LVEF was calculated with the equation: [(ED-ES)/ED]/100.
Two weeks after completion of tamoxifen treatment mice were treated with doxorubicin or drug vehicle. Two cohorts of mice were treated with different schedules. […] To evaluate the chronic effect of doxorubicin on cardiac function, doxorubicin (5 mg/kg, i.p.) was administered once a week for 5 weeks, and cardiac function was examined 2 weeks after the last dose of doxorubicin by using MRI.
The effect of chronic doxorubicin treatment (5 mg/kg, ip, once a week for 5 weeks) was evaluated for its effect on ejection fraction.

COc1cccc2c1C(=O)c1c(O)c3c(c(O)c1C2=O)C[C@@](O)(C(=O)CO)C[C@@H]3O[C@H]1C[C@H](N)[C@H](O)[C@H](C)O1 [doxorubicin]
Reduction of doxorubicin-generated ROS in Top2bΔ/Δ mice versus Top2b+/+ mice ([1]; 16 hrs after doxorubicin 25 mg/kg): 70% | ROS generation (DHE) ([1]; Top2b+/+ hearts, chronic doxorubicin 5 mg/kg once a week for 5 weeks): generation of ROS | ROS generation in the hearts (DHE-positive nuclei) ([1]; Top2b+/+ mice, 16 hrs after doxorubicin 25 mg/kg): generated ROS | Protein levels of Ndufa3, Atp5a and Sdha in mitochondria [2]: reduction in the protein levels | Expression of PGC-1α [3]: Reduced expression | Expression of PGC-1β [3]: Reduced expression | Ejection fraction after treatment [4]: 45%
